In patent US12030835B2, “Substituted amide compounds useful as farnesoid X receptor modulators” (BRISTOL-MYERS SQUIBB COMPANY, priority 2019, dated 2024):

Molecular target: T1, human FXR (Homo sapiens, UniProt Q96RI1)
T1 construct: expressed in transfected cells
T1 sequence (Q96RI1 262-486 limits assumed): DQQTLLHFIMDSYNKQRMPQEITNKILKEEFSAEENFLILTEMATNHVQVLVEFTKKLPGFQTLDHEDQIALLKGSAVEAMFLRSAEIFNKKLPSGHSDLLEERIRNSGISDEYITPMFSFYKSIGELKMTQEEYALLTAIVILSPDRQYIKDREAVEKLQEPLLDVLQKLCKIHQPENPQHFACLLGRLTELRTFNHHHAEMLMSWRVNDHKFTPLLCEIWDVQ
Assay: transient human FXR/Gal4-luciferase reporter assay
Type: cell-based
Conditions: Gal4-hFXR (ligand binding domain) fusion transiently transfected in HEK293 Gal4-luciferase reporter cells; overnight incubation; response as percentage of 8 μM GW-4064 control
Method: A Gal4-hFXR fusion construct reporter system was used as the primary assay to characterize compound activity. A construct including 5 copies of the Gal4 promoter response element upstream of a firefly luciferase reporter cDNA was stably expressed in HEK293 cells. This reporter cell line was maintained in Dulbecco's Modified Eagle's medium (DMEM; Gibco) supplemented with 1% penicillin-streptomycin (P/S) solution, 500 μg/ml Zeocin and 10% charcoal/dextran-treated fetal bovine serum (cs-FBS) at 37° C. in a humidified 5% CO2 atmosphere. Another plasmid was constructed in which the human cytomegalovirus promoter in the pcDNA3.1 vector directs the expression of the cDNA encoding a fusion protein comprised of the DNA binding domain from the Gal4 transcription factor fused to the ligand binding domain from human FXR.
The day prior to transfection, the reporter cells in culture are detached from the plate with trypsin and plated into a T75 flask at a sufficient density to achieve approximately 90% confluence the next morning. The transfection reagents are prepared by separately diluting 25 μg of the pcDNA3.1-Gal4-FXR plasmid into 1.87 mL of Opti-MEM (Thermo-Fisher), and 40 μL of Lipofectamine 2000 (Thermo-Fisher) into 1.87 mL of Opti-MEM, and then adding the diluted DNA solution into the diluted Lipofectamine 2000 solution and incubating at room temperature for 15-20 minutes. The mixture is further diluted with 10 ml of a solution comprised of DMEM, 10% cs-FBS, and 1% P/S immediately prior to transferring to the cells. The maintenance culture media is aspirated from the cells and the final transfection mixture is added before the cells are incubated overnight at 37° C. in a humidified 5% CO2 atmosphere. This protocol can be scaled up, and the transiently transfected cells can be cryopreserved in an assay-ready format.
For compound testing, 100 nL of the compounds (serial dilutions in DMSO) are dispensed with an Echo acoustic dispenser (Labcyte) into the wells of a Corning/Costar clear bottom 384-well white plate. The transfected cells are harvested, counted, and diluted such that 10-25,000 cells in 25 μL are plated into each well of the 384-well compound assay plate. The compound-treated cells are incubated overnight at 37° C. in a humidified 5% CO2 atmosphere. The next morning 25 μL of Steady-Glo (Promega) are added to each well of the plate, the mixture is incubated for 15 min. with shaking, and luminescence is measured on an Envision (Perkin Elmer) plate reader.

Row | Compound | EC50 [nM]
1 | COC(=O)/C=C/c1cccc(N(CC23CCC(c4nc(C)no4)(CC2)CC3)C(=O)C(C)C)c1 [Example 22, methyl (E)-3-(3-(N-((4-(3-methyl-1,2,4-oxadiazol-5-yl)bicyclo[2.2.2]octan-1-yl)methyl)isobutyramido)phenyl)acrylate] | 849
2 | COC(=O)/C=C/c1cccc(N(CC23CCC(c4nc(C)no4)(CC2)CC3)C(=O)C2CCOCC2)c1 [Example 23, Methyl (E)-3-(3-(N-((4-(3-methyl-1,2,4-oxadiazol-5-yl)bicyclo[2.2.2]octan-1-yl)methyl)tetrahydro-2H-pyran-4-carboxamido)phenyl)acrylate] | 920
3 | COC(=O)/C=C/c1cccc(N(CC23CCC(c4nc(C)no4)(CC2)CC3)C(=O)C23CC(F)(C2)C3)c1 [Example 25, methyl (E)-3-(3-(3-fluoro-N-((4-(3-methyl-1,2,4-oxadiazol-5-yl)bicyclo[2.2.2]octan-1-yl)methyl)bicyclo[1.1.1]pentane-1-carboxamido)phenyl)acrylate] | 123
4 | COC(=O)/C=C/c1cccc(N(CC23CCC(c4ccc(C5CC5)cc4)(CC2)CC3)C(=O)C2CCCCC2)c1 [Example 29, Methyl (E)-3-(3-(N-((4-(4-cyclopropylphenyl)bicyclo[2.2.2]octan-1-yl)methyl)cyclohexanecarboxamido)phenyl)acrylate] | 161
5 | COC(=O)C1=Cc2cccc(N(CC34CCC(c5ccc(C6CC6)cc5)(CC3)CC4)C(=O)C3CCCCC3)c2CC1 [Example 30, Methyl 5-(N-((4-(4-cyclopropylphenyl)bicyclo[2.2.2]octan-1-yl)methyl)cyclohexanecarboxamido)-3,4-dihydronaphthalene-2-carboxylate] | 195
6 | COC(=O)C1=Cc2cccc(N(CC34CCC(c5ccc(C6CC6)cc5)(CC3)CC4)C(=O)C(C)C)c2CC1 [Example 32, methyl 5-(N-((4-(4-cyclopropylphenyl)bicyclo[2.2.2]octan-1-yl)methyl)isobutyramido)-3,4-dihydronaphthalene-2-carboxylate] | 466
7 | COC(=O)/C=C/c1cccc(N(CC23CCC(c4nc5ccccc5s4)(CC2)CC3)C(=O)C2CC2)c1 [Example 33, Methyl (E)-3-(3-(N-((4-(benzo[d]thiazol-2-yl)bicyclo[2.2.2]octan-1-yl)methyl)cyclopropanecarboxamido)phenyl)acrylate] | 414
8 | COC(=O)/C=C/c1cccc(N(CC23CCC(c4nc5ccccc5s4)(CC2)CC3)C(=O)C2CCCCC2)c1 [Example 34, Methyl (E)-3-(3-(N-((4-(benzo[d]thiazol-2-yl)bicyclo[2.2.2]octan-1-yl)methyl)cyclohexanecarboxamido)phenyl)acrylate] | 222
9 | COc1ccc(C23CCC(CN(C(=O)C4CCCCC4)c4cccc(/C=C/c5nc(C)no5)c4)(CC2)CC3)cc1 [Example 35, (E)-N-((4-(4-methoxyphenyl)bicyclo[2.2.2]octan-1-yl)methyl)-N-(3-(2-(3-methyl-1,2,4-oxadiazol-5-yl)vinyl)phenyl)cyclohexanecarboxamide] | 446
10 | COC(=O)/C=C(\C)c1cccc(N(CC23CCC(c4ccc(C5CC5)cc4)(CC2)CC3)C(=O)C2CCCCC2)c1 [Example 37, Methyl (E)-3-(3-(N-((4-(4-cyclopropylphenyl)bicyclo[2.2.2]octan-1-yl)methyl)cyclohexanecarboxamido)phenyl)but-2-enoate] | 498
11 | COC(=O)/C=C/c1cccc(N(CC23CCC(c4ccc(C(C)C)cc4)(CC2)CC3)C(=O)C2CCCCC2)c1 [Example 38, Methyl (E)-3-(3-(N-((4-(4-isopropylphenyl)bicyclo[2.2.2]octan-1-yl)methyl)cyclohexanecarboxamido)phenyl)acrylate] | 196
12 | COC(=O)/C=C/c1cccc(N(CC23CCC(c4ccc(C(C)C)cc4)(CC2)CC3)C(=O)C2CC2)c1 [Example 39, Methyl (E)-3-(3-(N-((4-(4-isopropylphenyl)bicyclo[2.2.2]octan-1-yl)methyl)cyclopropanecarboxamido)phenyl)acrylate] | 1430
13 | COC(=O)C1=Cc2cccc(N(CC34CCC(c5nc(C)no5)(CC3)CC4)C(=O)C3CCCCC3)c2CC1 [Example 40, Methyl 5-(N-((4-(3-methyl-1,2,4-oxadiazol-5-yl)bicyclo[2.2.2]octan-1-yl)methyl)cyclohexanecarboxamido)-3,4-dihydronaphthalene-2-carboxylate] | 1070
14 | COC(=O)/C=C/c1cccc(N(CC23CCC(c4nc(N5CCOCC5)no4)(CC2)CC3)C(=O)C2CCCCC2)c1 [Example 42, Methyl (E)-3-(3-(N-((4-(3-morpholino-1,2,4-oxadiazol-5-yl)bicyclo[2.2.2]octan-1-yl)methyl)cyclohexanecarboxamido)phenyl)acrylate] | 118
15 | COC(=O)/C=C/c1cccc(N(CC23CCC(c4nc(C5CCOCC5)no4)(CC2)CC3)C(=O)C2CCCCC2)c1 [Example 43, Methyl (E)-3-(3-(N-((4-(3-(tetrahydro-2H-pyran-4-yl)-1,2,4-oxadiazol-5-yl)bicyclo[2.2.2]octan-1-yl)methyl)cyclohexanecarboxamido)phenyl)acrylate] | 107

Results, then the molecule that gave them:

Row | EC50 [nM] | Compound
16 | 2440 | COC(=O)/C=C/c1cccc(N(CC23CCC(c4nc(C)no4)(CC2)CC3)C(=O)C2CC2)c1 [Example 21, methyl (E)-3-(3-(N-((4-(3-methyl-1,2,4-oxadiazol-5-yl)bicyclo[2.2.2]octan-1-yl)methyl)cyclopropanecarboxamido)phenyl) acrylate]
17 | 150 | COC(=O)/C=C/c1cccc(N(CC23CCC(c4nc(C)no4)(CC2)CC3)C(=O)C2CCCCCC2)c1 [Example 24, methyl (E)-3-(3-(N-((4-(3-methyl-1,2,4-oxadiazol-5-yl)bicyclo[2.2.2]octan-1-yl)methyl)cycloheptanecarboxamido)phenyl) acrylate]
18 | 302 | COC(=O)/C=C/c1cccc(N(CC23CCC(c4nc(C)no4)(CC2)CC3)C(=O)C2CC(F)(F)C2)c1 [Example 26, methyl (E)-3-(3-(3,3-difluoro-N-((4-(3-methyl-1,2,4-oxadiazol-5-yl)bicyclo[2.2.2]octan-1-yl)methyl)cyclobutane-1-carboxamido)phenyl)acrylate]
19 | 4460 | Cc1noc(C23CCC(CN(C(=O)C4CCCCC4)c4cccc(/C=C/C(=O)N(C)C)c4)(CC2)CC3)n1 [Example 27, (E)-N-(3-(3-(dimethylamino)-3-oxoprop-1-en-1-yl)phenyl)-N-((4-(3-methyl-1,2,4-oxadiazol-5-yl)bicyclo[2.2.2]octan-1-yl)methyl)cyclohexanecarboxamide]
20 | 947 | COC(=O)/C=C/c1cccc(N(CC23CCC(c4ccc(C5CC5)cc4)(CC2)CC3)C(=O)C2CC2)c1 [Example 28, Methyl (E)-3-(3-(N-((4-(4-cyclopropylphenyl)bicyclo[2.2.2]octan-1-yl)methyl)cyclopropanecarboxamido)phenyl)acrylate]
21 | 796 | COC(=O)C1=Cc2cccc(N(CC34CCC(c5ccc(C6CC6)cc5)(CC3)CC4)C(=O)C3CC3)c2CC1 [Example 31, methyl 5-(N-((4-(4-cyclopropylphenyl)bicyclo[2.2.2]octan-1-yl)methyl)cyclopropanecarboxamido)-3,4-dihydronaphthalene-2-carboxylate]
22 | 1780 | COC(=O)/C=C(\C)c1cccc(N(CC23CCC(c4ccc(C5CC5)cc4)(CC2)CC3)C(=O)C2CC2)c1 [Example 36, Methyl (E)-3-(3-(N-((4-(4-cyclopropylphenyl)bicyclo[2.2.2]octan-1-yl)methyl)cyclopropanecarboxamido)phenyl)but-2-enoate]
23 | 87 | COC(=O)/C=C/c1cccc(N(CC23CCC(c4noc(C)n4)(CC2)CC3)C(=O)C2CCCCC2)c1 [Example 44, Methyl (E)-3-(3-(N-((4-(5-methyl-1,2,4-oxadiazol-3-yl)bicyclo[2.2.2]octan-1-yl)methyl)cyclohexanecarboxamido)phenyl)acrylate]
24 | 1150 | COC(=O)C1=Cc2cccc(N(CC34CCC(c5ccc6c(cnn6C)c5)(CC3)OC4)C(=O)C3CCCCC3)c2CC1 [Example 45, Methyl 5-(N-((1-(1-methyl-1H-indazol-5-yl)-2-oxabicyclo[2.2.2]octan-4-yl)methyl)cyclohexanecarboxamido)-3,4-dihydronaphthalene-2-carboxylate]
